Source: PubChem BioAssay AID272 (DTP/NCI, 2004)
“And” between values parts separate entries of the source, which are not always exact repeats. Equal entries are not always repeated. Inconclusive results are not listed.

Test system: Lewis lung carcinoma i.m., BDF1 mice, T/C %
Experiment: NCI In Vivo Anticancer Drug Screen. Data for tumor model Lewis Lung Carcinoma (intramuscular) in B6D2F1 (BDF1) mice
Experimental: The antitumor activity of compounds was measured in mice bearing transplantable tumors. Survival or tumor size were measured and the results are expressed as the measurement made in the treated group (T) divided by the measurement made in the vehicle treated control group (C). The tumor model used in this assay is Lewis Lung Carcinoma (intramuscular) in B6D2F1 (BDF1) mice

[1] = endpoint: median survival time, dose: 5.0 mg/kg/injection, schedule: Q01DX011 (ip), vehicle: saline with Tween-80, higher = longer survival
[2] = endpoint: median survival time, dose: 10.0 mg/kg/injection, schedule: Q01DX011 (ip), vehicle: saline with Tween-80, higher = longer survival
[3] = endpoint: mean tumor weight (est.), dose: 1.25 mg/kg/injection, schedule: Q01DX011 (ip), vehicle: saline, higher = larger tumour
[4] = endpoint: median survival time, dose: 300.0 mg/kg/injection, schedule: Q01DX001 (ip), vehicle: saline, higher = longer survival

In the case of `O=Nc1c(N=O)c(N=O)c(N=O)c(N=O)c1N=O`, the T/C [1] is reported as 110 % of control, the T/C [2] is reported as 106 % of control and the T/C (endpoint: median survival time, dose: 20.0 mg/kg/injection, schedule: Q01DX011 (ip), vehicle: saline with Tween-80, higher = longer survival) is reported as 115 % of control.
`Cc1cc2c3ccc(C)[n+](C)c3ccc2n1C` was tested, and the T/C (endpoint: mean tumor weight (est.), dose: 0.6 mg/kg/injection, schedule: Q01DX011 (ip), vehicle: saline, higher = larger tumour) was 81 % of control, the T/C [3] was 59 % of control and the T/C (endpoint: mean tumor weight (est.), dose: 2.5 mg/kg/injection, schedule: Q01DX011 (ip), vehicle: saline, higher = larger tumour) was 110 % of control.
`CC(C)S(=O)(=O)/C(Cl)=C(/Cl)C(Cl)=C(Cl)Cl` was tested, and the T/C (endpoint: mean tumor weight, dose: 25.0 mg/kg/injection, schedule: Q01DX011 (ip), vehicle: sodium bicarbonate, higher = larger tumour) was 111 % of control, the T/C (endpoint: mean tumor weight, dose: 50.0 mg/kg/injection, schedule: Q01DX011 (ip), vehicle: sodium bicarbonate, higher = larger tumour) was 117 % of control and the T/C (endpoint: mean tumor weight, dose: 100.0 mg/kg/injection, schedule: Q01DX011 (ip), vehicle: sodium bicarbonate, higher = larger tumour) was 100 % of control. The T/C (endpoint: median survival time, dose: 50.0 mg/kg/injection, schedule: Q01DX011 (ip), vehicle: sodium bicarbonate, higher = longer survival) was 87 % of control.
For `O=P1(N(CCCl)CCCl)NCCCO1` (stereo not drawn), the T/C (endpoint: mean tumor weight (est.), dose: 65.0 mg/kg/injection, schedule: Q01DX011 (ip), vehicle: saline, higher = larger tumour) was 40 % of control, the T/C (endpoint: mean tumor weight, dose: 65.0 mg/kg/injection, schedule: Q01DX001 (sc), vehicle: saline, higher = larger tumour) was 44 % of control and the T/C (endpoint: mean tumor weight, dose: 100.0 mg/kg/injection, schedule: Q01DX001 (ip), vehicle: saline, higher = larger tumour) was 58 % of control. The T/C (endpoint: mean tumor weight, dose: 108.0 mg/kg/injection, schedule: Q01DX001 (sc), vehicle: saline, higher = larger tumour) was 39 % of control, the T/C (endpoint: mean tumor weight, dose: 180.0 mg/kg/injection, schedule: Q01DX001 (ip), vehicle: saline, higher = larger tumour) was 13 % of control and the T/C (endpoint: mean tumor weight, dose: 180.0 mg/kg/injection, schedule: Q01DX001 (sc), vehicle: saline, higher = larger tumour) was 27 % of control. The T/C (endpoint: mean tumor weight, dose: 300.0 mg/kg/injection, schedule: Q01DX001 (sc), vehicle: saline, higher = larger tumour) was 31 % of control, the T/C (endpoint: median survival time, dose: 6.25 mg/kg/injection, schedule: Q01DX009 (ip), vehicle: saline, higher = longer survival) was 106 % of control and the T/C (endpoint: median survival time, dose: 12.5 mg/kg/injection, schedule: Q01DX009 (ip), vehicle: saline, higher = longer survival) was 116 % of control. The T/C (endpoint: median survival time, dose: 12.5 mg/kg/injection, schedule: Q03DX010 (ip), vehicle: saline, higher = longer survival) was 109 % of control and 110 % of control, the T/C (endpoint: median survival time, dose: 19.0 mg/kg/injection, schedule: Q01DX007 (sc), vehicle: saline, higher = longer survival) was 100 % of control and the T/C (endpoint: median survival time, dose: 23.0 mg/kg/injection, schedule: Q08DX003 (sc), vehicle: saline, higher = longer survival) was 121 % of control. For the same molecule, the T/C (endpoint: median survival time, dose: 25.0 mg/kg/injection, schedule: Q01DX009 (ip), vehicle: saline, higher = longer survival) was 114 % of control, the T/C (endpoint: median survival time, dose: 39.0 mg/kg/injection, schedule: Q08DX003 (ip), vehicle: saline, higher = longer survival) was 100 % of control and 105 % of control and the T/C (endpoint: median survival time, dose: 39.0 mg/kg/injection, schedule: Q08DX003 (sc), vehicle: saline, higher = longer survival) was 184 % of control and 186 % of control. For the same molecule, the T/C (endpoint: median survival time, dose: 50.0 mg/kg/injection, schedule: Q01DX001 (ip), vehicle: methylcellulose (MC), higher = longer survival) was 104 % of control and 106 % of control, the T/C (endpoint: median survival time, dose: 50.0 mg/kg/injection, schedule: Q01DX009 (ip), vehicle: saline, higher = longer survival) was 114 % of control and the T/C (endpoint: median survival time, dose: 52.0 mg/kg/injection, schedule: Q01DX007 (sc), vehicle: saline, higher = longer survival) was 95 % of control and 105 % of control. The T/C (endpoint: median survival time, dose: 65.0 mg/kg/injection, schedule: Q08DX003 (ip), vehicle: saline, higher = longer survival) was 161 % of control, the T/C (endpoint: median survival time, dose: 65.0 mg/kg/injection, schedule: Q08DX003 (sc), vehicle: saline, higher = longer survival) was 191 % of control and 192 % of control and the T/C (endpoint: median survival time, dose: 65.0 mg/kg/injection, schedule: Q14DX002 (ip), vehicle: saline, higher = longer survival) was 168 % of control. For the same molecule, the T/C (endpoint: median survival time, dose: 86.0 mg/kg/injection, schedule: Q01DX007 (sc), vehicle: saline, higher = longer survival) was 78 % of control, the T/C (endpoint: median survival time, dose: 100.0 mg/kg/injection, schedule: Q01DX001 (ip), vehicle: methylcellulose (MC), higher = longer survival) was 198 % of control and 235 % of control and the T/C (endpoint: median survival time, dose: 100.0 mg/kg/injection, schedule: Q14DX002 (ip), vehicle: saline, higher = longer survival) was 159 % of control. The T/C (endpoint: median survival time, dose: 108.0 mg/kg/injection, schedule: Q08DX003 (ip), vehicle: saline, higher = longer survival) was 89 % of control, the T/C (endpoint: median survival time, dose: 108.0 mg/kg/injection, schedule: Q08DX003 (sc), vehicle: saline, higher = longer survival) was 173 % of control and 186 % of control and the T/C (endpoint: median survival time, dose: 108.0 mg/kg/injection, schedule: Q14DX002 (ip), vehicle: saline, higher = longer survival) was 154 % of control. The T/C (endpoint: median survival time, dose: 144.0 mg/kg/injection, schedule: Q01DX001 (sc), vehicle: saline, higher = longer survival) was 151 % of control, the T/C (endpoint: median survival time, dose: 180.0 mg/kg/injection, schedule: Q08DX003 (ip), vehicle: saline, higher = longer survival) was 68 % of control and the T/C (endpoint: median survival time, dose: 180.0 mg/kg/injection, schedule: Q08DX003 (sc), vehicle: saline, higher = longer survival) was 100 % of control and 103 % of control. The T/C (endpoint: median survival time, dose: 180.0 mg/kg/injection, schedule: Q14DX002 (ip), vehicle: saline, higher = longer survival) was 113 % of control, the T/C (endpoint: median survival time, dose: 200.0 mg/kg/injection, schedule: Q01DX001 (ip), vehicle: methylcellulose (MC), higher = longer survival) was 39 % of control and the T/C (endpoint: median survival time, dose: 200.0 mg/kg/injection, schedule: Q03DX010 (ip), vehicle: saline, higher = longer survival) was 30 % of control. The T/C (endpoint: median survival time, dose: 200.0 mg/kg/injection, schedule: Q14DX002 (ip), vehicle: saline, higher = longer survival) was 122 % of control, the T/C (endpoint: median survival time, dose: 240.0 mg/kg/injection, schedule: Q01DX001 (sc), vehicle: saline, higher = longer survival) was 174 % of control and 180 % of control and the T/C [4] was 63 % of control. The T/C (endpoint: median survival time, dose: 300.0 mg/kg/injection, schedule: Q01DX001 (sc), vehicle: saline, higher = longer survival) was 160 % of control, the T/C (endpoint: median survival time, dose: 300.0 mg/kg/injection, schedule: Q08DX003 (ip), vehicle: saline, higher = longer survival) was 57 % of control and the T/C (endpoint: median survival time, dose: 400.0 mg/kg/injection, schedule: Q01DX001 (ip), vehicle: methylcellulose (MC), higher = longer survival) was 22 % of control. For the same molecule, the T/C (endpoint: median survival time, dose: 400.0 mg/kg/injection, schedule: Q01DX001 (ip), vehicle: saline, higher = longer survival) was 60 % of control, the T/C (endpoint: median survival time, dose: 400.0 mg/kg/injection, schedule: Q01DX001 (sc), vehicle: saline, higher = longer survival) was 49 % of control and the T/C (endpoint: median survival time, dose: 460.0 mg/kg/injection, schedule: Q01DX001 (ip), vehicle: saline, higher = longer survival) was 18 % of control. For the same molecule, the T/C (endpoint: median tumor weight (est.), dose: 65.0 mg/kg/injection, schedule: Q01DX001 (ip), vehicle: saline, higher = larger tumour) was 27 % of control.
For `Clc1ccc(C(c2ccccc2Cl)C(Cl)Cl)cc1` (stereo not drawn), the T/C (endpoint: median survival time, dose: 50.0 mg/kg/injection, schedule: Q01DX011 (ip), vehicle: Klucel (hydroxypropylcellulose) (HPC), higher = longer survival) was 88 % of control and the T/C (endpoint: median survival time, dose: 100.0 mg/kg/injection, schedule: Q01DX011 (ip), vehicle: Klucel (hydroxypropylcellulose) (HPC), higher = longer survival) was 95 % of control.
For `CCCCCCCCCCCCn1c(C)nc2ccccc21`, the T/C (endpoint: mean tumor weight (est.), dose: 0.63 mg/kg/injection, schedule: Q01DX011 (ip), vehicle: saline, higher = larger tumour) was 84 % of control, the T/C [3] was 89 % of control and the T/C (endpoint: median survival time, dose: 0.63 mg/kg/injection, schedule: Q01DX011 (ip), vehicle: saline, higher = longer survival) was 104 % of control. For the same molecule, the T/C (endpoint: median survival time, dose: 1.25 mg/kg/injection, schedule: Q01DX011 (ip), vehicle: saline, higher = longer survival) was 98 % of control.
With `CC(=O)O[C@H]1[C@H]2O[C@]23[C@@H]2CC[C@@H]4C[C@@H](O)CC[C@]4(C)[C@H]2CC[C@]3(C)[C@H]1c1ccc(=O)oc1` the T/C (endpoint: mean tumor weight (est.), dose: 7.5 mg/kg/injection, schedule: Q01DX011 (ip), vehicle: other, higher = larger tumour) was 94 % of control and the T/C (endpoint: median survival time, dose: 7.5 mg/kg/injection, schedule: Q01DX011 (ip), vehicle: other, higher = longer survival) was 90 % of control.
`COC(=O)Nc1nc2ccc(C(=O)c3cccs3)cc2[nH]1` was tested, and the T/C (endpoint: median survival time, dose: 35.0 mg/kg/injection, schedule: Q03DX008 (ip), vehicle: other, higher = longer survival) was 101 % of control and the T/C (endpoint: median survival time, dose: 70.0 mg/kg/injection, schedule: Q03DX008 (ip), vehicle: other, higher = longer survival) was 86 % of control.
For `CCOC(=O)C(CS)NC(=O)CCNC(C)=O` (stereo not drawn), the T/C (endpoint: median survival time, dose: 4.0 mg/kg/injection, schedule: Q01DX009 (ip), vehicle: water, higher = longer survival) was 109 % of control, the T/C (endpoint: median survival time, dose: 8.0 mg/kg/injection, schedule: Q01DX009 (ip), vehicle: water, higher = longer survival) was 119 % of control and the T/C (endpoint: median survival time, dose: 32.0 mg/kg/injection, schedule: Q01DX009 (ip), vehicle: water, higher = longer survival) was 113 % of control. The T/C (endpoint: median survival time, dose: 64.0 mg/kg/injection, schedule: Q01DX009 (ip), vehicle: water, higher = longer survival) was 124 % of control.
For `NCCCNCCSP(=O)(O)O`, the T/C [4] was 102 % of control and the T/C (endpoint: median survival time, dose: 500.0 mg/kg/injection, schedule: Q01DX001 (ip), vehicle: saline, higher = longer survival) was 92 % of control.
With `O=C(CBr)c1ccc(I)cc1` the T/C (endpoint: median survival time, dose: 1.25 mg/kg/injection, schedule: Q01DX011 (ip), vehicle: saline with Tween-80, higher = longer survival) was 102 % of control, the T/C (endpoint: median survival time, dose: 2.5 mg/kg/injection, schedule: Q01DX011 (ip), vehicle: saline with Tween-80, higher = longer survival) was 86 % of control and the T/C [1] was 89 % of control. The T/C [2] was 104 % of control.
